How the values were obtained:
G1994D mPIEZO1 = target: T1, G1994D mPIEZO1 (Mus musculus, UniProt E2JF22, G1994D); assay: Intracellular Ca2+ measurement (fura-2), T-REx-293 cells stably transfected; type: cell-based; conditions: for Mean normalise fluorescence (Figure 5d): G1994D
T1 construct: expressed in transfected cells
Protocol: (§1) T-REx-293 cell line was transfected with pcDNA4/TO-mPIEZO1 constructs using Lipofectamine 2000 (Invitrogen) as above and treated with 200 μg.mL^−1 zeocin (InvivoGen) to select for stably transfected cells. At least two strongly expressing clonal cell lines were established and tested for each variant. All cell lines were maintained in Dulbecco’s Modified Eagle’s medium (Invitrogen) supplemented with 10% heat-inactivated fetal calf serum (Sigma-Aldrich), penicillin (50 units.mL^−1) and streptomycin (0.5 mg.mL^−1) (Sigma-Aldrich) and grown at 37°C in a humidified 5% CO2 incubator.
(§2) For intracellular Ca^2+ assays, cells were plated at 80–90% confluence in 96-well plates 24 h prior to recordings (6–8 × 10^4 cells per well). […] Cells were washed with SBS and incubated at room temperature for 20 min prior to recordings. Equal volumes of 2x concentrated compounds were injected to test for acute channel activation. Pre-incubation with compounds occurred during the 20 min prior to recordings. To expose cell membranes to hypo-osmolality, an equal volume of hypotonic SBS (containing only 35 mM NaCl) was injected onto the cells. Measurements were made on a fluorescence plate reader (Flexstation III, Molecular Devices) at room temperature (21 ± 2°C). Fura-2 was excited at 340 nm and 380 nm and emitted light collected at 510 nm, with measurements shown as the change in fluorescence (F) ratio (ΔF340/380).
(§3) KC41 (Dooku1) was prepared as described.[28] All purchased chemicals and solvents were used without further purification unless otherwise stated. All compounds were at least 95% pure by 1H NMR. 1H Nuclear Magnetic Resonance spectra were recorded at 500 MHz using a Bruker DRX 500 instrument or at 400 MHz using a Bruker DPX 400. 1H spectra are referenced based on the residual proton in the solvent (e.g., the CHCl3, 0.01% in 99.99% CDCl3). Coupling constants (J) are reported to the nearest 0.1 Hz. 13C NMR spectra were recorded at 125 MHz on 500 MHz spectrometers or at 100 MHz on 400 MHz spectrometers. LC-MS was performed on a Bruker Daltronics running a gradient of increasing acetonitrile (5–95%) in H2O both containing 0.1% formic acid at 1 mL.min^−1, on a short path C18 reverse phase column, detecting compounds with both a diode array detector and a Bruker mass spectrum analyser. HRMS was performed on a Bruker Daltonics micrOTOF using positive electrospray ionisation (ES+). Automated column chromatograph was carried out using a Biotage Isolera Four, using either Sfär Silica D or KP-Silica cartridges. HPLC was performed on an Agilent 1290 Infinity Series equipped with a UV detector and Hyperprep C18 reverse phase column. Key to NMR abbreviations: s (singlet), br s (broad singlet) d (doublet), dd (doublet of doublets), ddd (doublet of doublets of doublets), t (triplet), dt (doublet of triples), q (quartet), m (multiplet), ap. t (apparent triplet). For experiments, Yoda1 and its analogues were prepared as 10 mM stock solutions in 100% dimethyl sulfoxide (DMSO) before serial dilution in DMSO and final dilution in aqueous solution. Cells were exposed to 0.1% DMSO for all concentrations of the compounds from 0 to 10 μM.

R2351Q mPIEZO1 = target: T2, R2351Q mPIEZO1 (Mus musculus, UniProt E2JF22, R2351Q); assay: as above; type: cell-based; conditions: R2351Q
T2 construct: expressed in transfected cells
T2 sequence (E2JF22 whole entry R2351Q): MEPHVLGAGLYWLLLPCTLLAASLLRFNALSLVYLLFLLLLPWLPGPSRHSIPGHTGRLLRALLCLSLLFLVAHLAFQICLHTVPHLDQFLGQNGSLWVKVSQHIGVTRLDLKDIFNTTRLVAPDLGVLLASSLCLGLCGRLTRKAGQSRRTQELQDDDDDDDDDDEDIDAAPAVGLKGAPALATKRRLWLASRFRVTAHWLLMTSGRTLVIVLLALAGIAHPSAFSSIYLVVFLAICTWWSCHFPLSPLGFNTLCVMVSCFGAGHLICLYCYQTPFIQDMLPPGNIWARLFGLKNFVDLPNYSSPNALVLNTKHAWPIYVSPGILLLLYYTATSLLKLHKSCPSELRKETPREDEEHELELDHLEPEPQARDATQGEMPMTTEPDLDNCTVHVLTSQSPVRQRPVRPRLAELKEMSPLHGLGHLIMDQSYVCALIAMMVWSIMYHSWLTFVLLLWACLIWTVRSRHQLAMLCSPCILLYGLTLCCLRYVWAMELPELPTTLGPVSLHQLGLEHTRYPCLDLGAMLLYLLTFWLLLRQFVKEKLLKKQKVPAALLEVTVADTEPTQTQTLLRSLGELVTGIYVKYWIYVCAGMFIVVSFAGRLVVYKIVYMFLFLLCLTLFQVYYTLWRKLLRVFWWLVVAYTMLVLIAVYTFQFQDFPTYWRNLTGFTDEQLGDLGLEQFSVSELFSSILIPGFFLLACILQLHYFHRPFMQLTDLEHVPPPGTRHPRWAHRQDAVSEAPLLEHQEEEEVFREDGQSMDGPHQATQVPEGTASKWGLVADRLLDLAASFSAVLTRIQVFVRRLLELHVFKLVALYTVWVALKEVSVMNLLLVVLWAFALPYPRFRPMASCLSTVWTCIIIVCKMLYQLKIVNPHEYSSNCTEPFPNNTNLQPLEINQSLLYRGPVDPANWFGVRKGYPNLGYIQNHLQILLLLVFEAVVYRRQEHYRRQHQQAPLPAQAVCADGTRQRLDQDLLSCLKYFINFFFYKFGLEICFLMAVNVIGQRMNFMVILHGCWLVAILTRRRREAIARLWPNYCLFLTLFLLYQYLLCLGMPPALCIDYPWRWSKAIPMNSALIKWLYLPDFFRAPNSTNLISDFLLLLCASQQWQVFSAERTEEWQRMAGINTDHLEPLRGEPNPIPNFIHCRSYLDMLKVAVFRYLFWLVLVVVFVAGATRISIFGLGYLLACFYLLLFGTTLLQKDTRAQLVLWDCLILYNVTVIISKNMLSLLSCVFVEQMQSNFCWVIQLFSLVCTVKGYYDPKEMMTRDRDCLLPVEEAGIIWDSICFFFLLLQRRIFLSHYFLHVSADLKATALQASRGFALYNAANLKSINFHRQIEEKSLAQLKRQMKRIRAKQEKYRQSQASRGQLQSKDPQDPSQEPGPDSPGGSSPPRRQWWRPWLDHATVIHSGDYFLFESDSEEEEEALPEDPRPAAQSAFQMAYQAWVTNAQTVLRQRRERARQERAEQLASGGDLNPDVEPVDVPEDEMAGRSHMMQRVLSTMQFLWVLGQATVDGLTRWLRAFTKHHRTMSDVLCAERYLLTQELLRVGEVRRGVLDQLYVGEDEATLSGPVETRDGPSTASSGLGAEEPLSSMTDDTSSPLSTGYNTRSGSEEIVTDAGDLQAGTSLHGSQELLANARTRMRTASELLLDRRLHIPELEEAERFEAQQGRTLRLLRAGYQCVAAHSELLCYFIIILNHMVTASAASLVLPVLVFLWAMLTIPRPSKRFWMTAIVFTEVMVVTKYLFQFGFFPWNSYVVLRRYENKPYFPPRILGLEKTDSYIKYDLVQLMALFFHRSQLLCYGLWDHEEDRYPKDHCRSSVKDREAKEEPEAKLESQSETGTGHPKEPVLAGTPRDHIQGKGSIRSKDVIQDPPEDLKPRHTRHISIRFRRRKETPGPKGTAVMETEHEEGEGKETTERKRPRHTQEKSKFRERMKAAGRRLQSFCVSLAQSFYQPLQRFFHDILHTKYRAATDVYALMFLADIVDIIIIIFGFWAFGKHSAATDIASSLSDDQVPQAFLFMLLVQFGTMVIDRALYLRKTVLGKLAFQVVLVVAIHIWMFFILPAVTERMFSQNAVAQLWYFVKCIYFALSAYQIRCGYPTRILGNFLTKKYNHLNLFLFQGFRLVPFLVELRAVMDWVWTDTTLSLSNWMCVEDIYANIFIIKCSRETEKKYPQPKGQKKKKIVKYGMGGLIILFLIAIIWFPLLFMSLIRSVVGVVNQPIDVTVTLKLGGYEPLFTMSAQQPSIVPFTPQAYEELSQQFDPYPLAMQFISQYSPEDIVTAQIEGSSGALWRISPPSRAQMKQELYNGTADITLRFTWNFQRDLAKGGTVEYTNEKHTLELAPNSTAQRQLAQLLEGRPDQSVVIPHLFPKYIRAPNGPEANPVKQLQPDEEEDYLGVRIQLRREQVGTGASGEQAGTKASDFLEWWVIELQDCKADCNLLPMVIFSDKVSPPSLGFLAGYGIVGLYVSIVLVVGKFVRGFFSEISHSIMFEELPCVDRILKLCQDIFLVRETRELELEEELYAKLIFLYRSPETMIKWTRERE
Protocol: as §1, §2, §3

T1 sequence (E2JF22 whole entry G1994D): as the sequence (E2JF22 whole entry R2351Q) above, with G1994D, Q2351R counted along it

Clc1cccc(Cl)c1CSc1nnc(-c2cnccn2)s1 [Yoda1]
Mean normalise fluorescence (Figure 5d) (G1994D mPIEZO1; Yoda1 concentration 0.01 µM): 0.00218
Mean normalise fluorescence (Figure 5d) (G1994D mPIEZO1; Yoda1 concentration 0.03 µM): 0.00674
Mean normalise fluorescence (Figure 5d) (G1994D mPIEZO1; Yoda1 concentration 0.1 µM): 0.01862
Mean normalise fluorescence (Figure 5d) (G1994D mPIEZO1; Yoda1 concentration 0.3 µM): 0.1159
Mean normalise fluorescence (Figure 5d) (G1994D mPIEZO1; Yoda1 concentration 1 µM): 0.3636
Mean normalise fluorescence (Figure 5d) (G1994D mPIEZO1; Yoda1 concentration 3 µM): 0.6853
Mean normalise fluorescence (Figure 5d) (G1994D mPIEZO1; Yoda1 concentration 5 µM): 0.8762
Mean normalise fluorescence (Figure 5d) (G1994D mPIEZO1; Yoda1 concentration 10 µM): 1
EC50 (G1994D mPIEZO1; long (20 min) exposure, normalized to 3 μM Yoda1): 310 nM
Effect on mPIEZO1 channel function (G1994D mPIEZO1; versus WT): reduced MA: LOF; reduced inactivation: GOF; reduced Y1 potency
Mean (Ca2+ signal time course, Figure 4f) (R2351Q mPIEZO1; 0.3 µM, time 0 s): -0.00579
Mean (Ca2+ signal time course, Figure 4f) (R2351Q mPIEZO1; 0.3 µM, time 5 s): 0.00313
Mean (Ca2+ signal time course, Figure 4f) (R2351Q mPIEZO1; 0.3 µM, time 10 s): -0.01466
Mean (Ca2+ signal time course, Figure 4f) (R2351Q mPIEZO1; 0.3 µM, time 15 s): 0.00749
Mean (Ca2+ signal time course, Figure 4f) (R2351Q mPIEZO1; 0.3 µM, time 20 s): 0.00732
Mean (Ca2+ signal time course, Figure 4f) (R2351Q mPIEZO1; 0.3 µM, time 25 s): 0.00251
Mean (Ca2+ signal time course, Figure 4f) (R2351Q mPIEZO1; 0.3 µM, time 30 s): -0.3502
Mean (Ca2+ signal time course, Figure 4f) (R2351Q mPIEZO1; 0.3 µM, time 35 s): 0.104
Mean (Ca2+ signal time course, Figure 4f) (R2351Q mPIEZO1; 0.3 µM, time 40 s): 0.09692
Mean (Ca2+ signal time course, Figure 4f) (R2351Q mPIEZO1; 0.3 µM, time 45 s): 0.1007
Mean (Ca2+ signal time course, Figure 4f) (R2351Q mPIEZO1; 0.3 µM, time 50 s): 0.1032
Mean (Ca2+ signal time course, Figure 4f) (R2351Q mPIEZO1; 0.3 µM, time 55 s): 0.1237
Mean (Ca2+ signal time course, Figure 4f) (R2351Q mPIEZO1; 0.3 µM, time 60 s): 0.09438
Mean (Ca2+ signal time course, Figure 4f) (R2351Q mPIEZO1; 0.3 µM, time 65 s): 0.1134
Mean (Ca2+ signal time course, Figure 4f) (R2351Q mPIEZO1; 0.3 µM, time 70 s): 0.1058
Mean (Ca2+ signal time course, Figure 4f) (R2351Q mPIEZO1; 0.3 µM, time 75 s): 0.1024
Mean (Ca2+ signal time course, Figure 4f) (R2351Q mPIEZO1; 0.3 µM, time 80 s): 0.1081
Mean (Ca2+ signal time course, Figure 4f) (R2351Q mPIEZO1; 0.3 µM, time 85 s): 0.0998
Mean (Ca2+ signal time course, Figure 4f) (R2351Q mPIEZO1; 0.3 µM, time 90 s): 0.09979
Mean (Ca2+ signal time course, Figure 4f) (R2351Q mPIEZO1; 0.3 µM, time 95 s): 0.1117
Mean (Ca2+ signal time course, Figure 4f) (R2351Q mPIEZO1; 0.3 µM, time 100 s): 0.1219
Mean (Ca2+ signal time course, Figure 4f) (R2351Q mPIEZO1; 0.3 µM, time 105 s): 0.1074
Mean (Ca2+ signal time course, Figure 4f) (R2351Q mPIEZO1; 0.3 µM, time 110 s): 0.1111
Mean (Ca2+ signal time course, Figure 4f) (R2351Q mPIEZO1; 0.3 µM, time 115 s): 0.1145
Mean (Ca2+ signal time course, Figure 4f) (R2351Q mPIEZO1; 0.3 µM, time 120 s): 0.1043
Mean (Ca2+ signal time course, Figure 4f) (R2351Q mPIEZO1; 0.3 µM, time 125 s): 0.1036
Mean (Ca2+ signal time course, Figure 4f) (R2351Q mPIEZO1; 0.3 µM, time 130 s): 0.08711
Mean (Ca2+ signal time course, Figure 4f) (R2351Q mPIEZO1; 3 µM, time 0 s): -0.0026
Mean (Ca2+ signal time course, Figure 4f) (R2351Q mPIEZO1; 3 µM, time 5 s): -0.00676
Mean (Ca2+ signal time course, Figure 4f) (R2351Q mPIEZO1; 3 µM, time 10 s): -0.01186
Mean (Ca2+ signal time course, Figure 4f) (R2351Q mPIEZO1; 3 µM, time 15 s): -0.00542
Mean (Ca2+ signal time course, Figure 4f) (R2351Q mPIEZO1; 3 µM, time 20 s): 0.01045
Mean (Ca2+ signal time course, Figure 4f) (R2351Q mPIEZO1; 3 µM, time 25 s): 0.0162
Mean (Ca2+ signal time course, Figure 4f) (R2351Q mPIEZO1; 3 µM, time 30 s): -0.5301

Reference: PMC12337661, “PIEZO1 mechanical insensitivity in generalized lymphatic dysplasia with the potential for pharmacological rescue” (iScience, 2025)
